Source: the NIST ThermoML archive (doi:10.1021/je900414p)

Settings: Liquid

CCOS(=O)(=O)[O-].CCn1cc[n+](C)c1 [1-ethyl-3-methylimidazolium ethyl sulfate]
mass density [kg/m3]
Settings | 100 kPa | 2500 kPa | 5000 kPa | 10000 kPa | 15000 kPa | 20000 kPa | 25000 kPa | 30000 kPa | 35000 kPa
283.15 K | 1247.6 | 1248.59 | 1249.58 | 1251.56 | 1253.65 | 1255.44 | 1257.31 | 1259.18 | 1261.04
288.15 K | 1244.17 | 1245.15 | 1246.17 | 1248.17 | 1250.14 | 1252.1 | 1254.03 | 1255.9 | 1257.77
293.15 K | 1240.67 | 1241.7 | 1242.72 | 1244.75 | 1246.75 | 1248.72 | 1250.66 | 1252.56 | 1254.46
298.15 K | 1237.33 | 1238.32 | 1239.36 | 1241.41 | 1243.42 | 1245.42 | 1247.38 | 1249.31 | 1251.22
303.15 K | 1233.95 | 1234.96 | 1236.02 | 1238.1 | 1240.14 | 1242.15 | 1244.14 | 1246.11 | 1248.06
308.15 K | 1230.49 | 1231.54 | 1232.6 | 1234.71 | 1236.78 | 1238.83 | 1240.83 | 1242.81 | 1244.76
313.15 K | 1227.14 | 1228.21 | 1229.29 | 1231.41 | 1233.51 | 1235.57 | 1237.6 | 1239.6 | 1241.57
318.15 K | 1223.86 | 1224.94 | 1226.03 | 1228.17 | 1230.31 | 1232.4 | 1234.44 | 1236.49 | 1238.47
323.15 K | 1220.46 | 1221.54 | 1222.66 | 1224.85 | 1226.99 | 1229.11 | 1231.18 | 1233.23 | 1235.25
328.15 K | 1217.07 | 1218.15 | 1219.31 | 1221.5 | 1223.69 | 1225.81 | 1227.93 | 1229.99 | 1232.04
333.15 K | 1213.67 | 1214.63 | 1215.87 | 1218.14 | 1220.35 | 1222.53 | 1224.65 | 1226.74 | 1228.8
338.15 K | 1210.4 | 1211.52 | 1212.68 | 1214.94 | 1217.17 | 1219.36 | 1221.51 | 1223.61 | 1225.71

CCO [ethanol]
mass density [kg/m3]
Settings | 100 kPa | 2500 kPa | 5000 kPa | 10000 kPa | 15000 kPa | 20000 kPa | 25000 kPa | 30000 kPa | 35000 kPa
283.15 K | 797.76 | 799.74 | 801.73 | 805.58 | 809.28 | 812.8 | 816.2 | 819.47 | 822.63
288.15 K | 793.65 | 795.66 | 797.73 | 801.67 | 805.43 | 809.06 | 812.52 | 815.87 | 819.04
293.15 K | 789.19 | 791.25 | 793.37 | 797.42 | 801.3 | 804.99 | 808.53 | 811.94 | 815.23
298.15 K | 784.92 | 787.03 | 789.21 | 793.38 | 797.34 | 801.11 | 804.75 | 808.21 | 811.58
303.15 K | 780.63 | 782.81 | 785.04 | 789.3 | 793.37 | 797.25 | 800.93 | 804.49 | 807.95
308.15 K | 776.26 | 778.54 | 780.82 | 785.22 | 789.37 | 793.34 | 797.14 | 800.76 | 804.27
313.15 K | 771.91 | 774.26 | 776.62 | 781.13 | 785.4 | 789.45 | 793.33 | 797.04 | 800.61
318.15 K | 767.58 | 769.99 | 772.41 | 777.04 | 781.43 | 785.59 | 789.55 | 793.36 | 796.98
323.15 K | 763.09 | 765.56 | 768.08 | 772.84 | 777.34 | 781.59 | 785.65 | 789.53 | 793.24
328.15 K | 758.54 | 761.09 | 763.7 | 768.58 | 773.22 | 777.57 | 781.73 | 785.7 | 789.5
333.15 K | 753.96 | 756.61 | 759.27 | 764.32 | 769.08 | 773.56 | 777.81 | 781.87 | 785.76
338.15 K | 749.42 | 752.16 | 754.89 | 760.09 | 764.99 | 769.59 | 773.96 | 778.09 | 782.06
343.15 K | 744.74 | 747.57 | 750.39 | 755.74 | 760.75 | 765.47 | 769.94 | 774.17 | 778.23
